The molecules below were run on Southern corn rootworm (Diabrotica undecimpuctata howardi Barber) (assay: Mite/insect screen, corn rootworm). Settings: Diabrotica; CRW rate 12.00 ppm, soil; read-out: CRW results (percent mortality).
Assay type: in vivo
Method: (§1) The compounds of Examples were tested for miticidal and insecticidal activity in the following mite/insect screen.
(§2) Each test compound was formulated by dissolving the compound in acetone/alcohol (50:50) mixture containing 23 g of "TOXIMUL R" (sulfonate/nonionic emulsifier blend) and 13 g of "TOXIMUL S" (sulfonate/nonionic emulsifier blend) per liter. These mixtures were then diluted with water to give the indicated concentrations.
Activity on Southern corn rootworm (Diabrotica undecimpuctata howardi Barber) was evaluated by adding two ml of tap water, a presoaked corn seed, and 15 g of dry sandy soil to a one ounce plastic container. The soil was treated with 1 mL of test solution containing a predetermined concentration of test compound. After six to 12 hours of drying, five 2-3 instar corn rootworm larvae were added to the individual cups, which were then capped and held at 23° C.
(§3) After standard exposure periods, percent mortality and phytotoxicity were evaluated. […] The following abbreviations are used in Table 3:
CRW refers to corn rootworm
`Cc1oc2ncnc(OCCc3ccc4ccccc4c3)c2c1C` [Example 55, 5,6-dimethyl-4-[2-(2-naphthyl)ethoxy]furo[2,3-d]pyrimidine] showed a mortality at 12 ppm of 0%. For `Cc1ccc(CCNc2ncnc3oc(C)c(C)c23)cc1` [Example 24, 5,6-dimethyl-N-[2-(4-methylphenyl)ethyl]furo[2,3-d]pyrimidin-4-amine], the mortality at 12 ppm was 0%. For `CCCCOc1ccc(CCOc2ncnc3oc(C)c(C)c23)cc1` [Example 45, 5,6-dimethyl-4-[2-[4-(n-butoxy)phenyl]ethoxy]furo[2,3-d]pyrimidine], the mortality at 12 ppm was 0%.

Same assay, conditions: Diabrotica; CRW rate 24.00 ppm, soil; read-out: CRW results (percent mortality)
In the case of `Cc1oc2ncnc(OCCc3ccc4ccccc4c3)c2c1C` [Example 55, 5,6-dimethyl-4-[2-(2-naphthyl)ethoxy]furo[2,3-d]pyrimidine], the mortality at 24 ppm is reported as 0%. With `Cc1ccc(CCNc2ncnc3oc(C)c(C)c23)cc1` [Example 24, 5,6-dimethyl-N-[2-(4-methylphenyl)ethyl]furo[2,3-d]pyrimidin-4-amine] the mortality at 24 ppm was 0%. Work on `CCCCOc1ccc(CCOc2ncnc3oc(C)c(C)c23)cc1` [Example 45, 5,6-dimethyl-4-[2-[4-(n-butoxy)phenyl]ethoxy]furo[2,3-d]pyrimidine] yielded a mortality at 24 ppm of 0%.

What follows are molecules tested on Erysiphe graminis tritici (powdery mildew) (assay: Plant pathology screen (Test 1), powdery mildew on wheat). Settings: Blumeria graminis, in Triticum aestivum, foliar, read-out: POWD MDEW control rating.
`Cc1oc2ncnc(OCCc3ccc4ccccc4c3)c2c1C` [Example 55, 5,6-dimethyl-4-[2-(2-naphthyl)ethoxy]furo[2,3-d]pyrimidine] was tested, and the pest or weed control at 400 µg/mL was 0 to 19%. For `Cc1ccc(CCNc2ncnc3oc(C)c(C)c23)cc1` [Example 24, 5,6-dimethyl-N-[2-(4-methylphenyl)ethyl]furo[2,3-d]pyrimidin-4-amine], the pest or weed control at 400 µg/mL was 0 to 19%. For `CCCCOc1ccc(CCOc2ncnc3oc(C)c(C)c23)cc1` [Example 45, 5,6-dimethyl-4-[2-[4-(n-butoxy)phenyl]ethoxy]furo[2,3-d]pyrimidine], the pest or weed control at 400 µg/mL was 20 to 89%.

Each molecule was assayed on Pyricularia oryzae (rice blast) (assay: whole plant or invertebrate). Settings: foliar, read-out: RICE BLAST control rating.
Assay type: in vivo
`Cc1oc2ncnc(OCCc3ccc4ccccc4c3)c2c1C` [Example 55, 5,6-dimethyl-4-[2-(2-naphthyl)ethoxy]furo[2,3-d]pyrimidine] gave a pest or weed control at 400 µg/mL of 0 to 19%. `Cc1ccc(CCNc2ncnc3oc(C)c(C)c23)cc1` [Example 24, 5,6-dimethyl-N-[2-(4-methylphenyl)ethyl]furo[2,3-d]pyrimidin-4-amine] gave a pest or weed control at 400 µg/mL of 20 to 89%. `CCCCOc1ccc(CCOc2ncnc3oc(C)c(C)c23)cc1` [Example 45, 5,6-dimethyl-4-[2-[4-(n-butoxy)phenyl]ethoxy]furo[2,3-d]pyrimidine] was tested, and the pest or weed control at 400 µg/mL was 0 to 19%.

What follows are molecules tested on Puccinia recondita tritici (leaf rust) (assay: Plant pathology screen (Test 1), leaf rust on wheat). Settings: in Triticum aestivum, foliar, read-out: LEAF RUST control rating.
Molecule `Cc1oc2ncnc(OCCc3ccc4ccccc4c3)c2c1C` [Example 55, 5,6-dimethyl-4-[2-(2-naphthyl)ethoxy]furo[2,3-d]pyrimidine] has a pest or weed control at 400 µg/mL of 20 to 89%. With `Cc1ccc(CCNc2ncnc3oc(C)c(C)c23)cc1` [Example 24, 5,6-dimethyl-N-[2-(4-methylphenyl)ethyl]furo[2,3-d]pyrimidin-4-amine] the pest or weed control at 400 µg/mL was 90 to 100%. `CCCCOc1ccc(CCOc2ncnc3oc(C)c(C)c23)cc1` [Example 45, 5,6-dimethyl-4-[2-[4-(n-butoxy)phenyl]ethoxy]furo[2,3-d]pyrimidine] gave a pest or weed control at 400 µg/mL of 90 to 100%.

Each molecule was assayed on Botrytis cinerea (gray mold) (assay: Plant pathology screen (Test 1), gray mold on grape berries). Settings: read-out: GRAY MOLD control rating.
Method: This screen was used to evaluate the efficacy of the present compounds against a variety of different organisms that cause plant diseases.
The test compounds were formulated for application by dissolving 50 mg of the compound into 1.25 ml of solvent. The solvent was prepared by mixing 50 ml of "Tween 20" (polyoxyethylene (20) sorbitan monolaurate emulsifier) with 475 ml of acetone and 475 ml of ethanol. The solvent/compound solution was diluted to 125 ml with deionized water. The resulting formulation contains 400 ppm test chemical. Lower concentrations were obtained by serial dilution with the solvent-surfactant mixture.
The formulated test compounds were applied by foliar spray. The following plant pathogens and their corresponding plants were employed.
The formulated technical compounds were sprayed on all foliar surfaces of the host plants (or cut berry) to past run-off. Single pots of each host plant were placed on raised, revolving pedestals in a fume hood. Test solutions were sprayed on all foliar surfaces. All treatments were allowed to dry and the plants were inoculated with the appropriate pathogens within 2-4 hours.
The effectiveness of test compounds in controlling disease was rated using the following scale.
In the case of `Cc1oc2ncnc(OCCc3ccc4ccccc4c3)c2c1C` [Example 55, 5,6-dimethyl-4-[2-(2-naphthyl)ethoxy]furo[2,3-d]pyrimidine], the pest or weed control at 400 µg/mL is reported as 0 to 19%. `Cc1ccc(CCNc2ncnc3oc(C)c(C)c23)cc1` [Example 24, 5,6-dimethyl-N-[2-(4-methylphenyl)ethyl]furo[2,3-d]pyrimidin-4-amine] was tested, and the pest or weed control at 400 µg/mL was 0 to 19%. Work on `CCCCOc1ccc(CCOc2ncnc3oc(C)c(C)c23)cc1` [Example 45, 5,6-dimethyl-4-[2-[4-(n-butoxy)phenyl]ethoxy]furo[2,3-d]pyrimidine] yielded a pest or weed control at 400 µg/mL of 0 to 19%.

What follows are molecules tested on melon aphids (Aphis gossvpii Glover) (assay: Mite/insect screen, melon aphids). Settings: Aphis; rate 200 ppm, sprayed leaves; read-out: MA results (percent mortality).
Assay type: in vivo
Method: as §1, §2
(§4) Twospotted spider mites (Tetranychus urticae Koch) and melon aphids (Aphis gossvpii Glover) were introduced on squash cotyledons and allowed to establish on both leaf surfaces. Other plants in the same treatment pot were left uninfested. The leaves were then sprayed with 5 ml of test solution using a DeVilbiss atomizing sprayer at 10 psi. Both surfaces of the leaves were covered until runoff, and then allowed to dry for one hour. Two uninfested leaves were then excised and placed into a Petri dish containing larval southern armyworm (Spodopetra eridania Cramer).
as §3
MA refers to melon aphids.
For `Cc1oc2ncnc(OCCc3ccc4ccccc4c3)c2c1C` [Example 55, 5,6-dimethyl-4-[2-(2-naphthyl)ethoxy]furo[2,3-d]pyrimidine], the mortality at 200 ppm was 0%. Work on `Cc1ccc(CCNc2ncnc3oc(C)c(C)c23)cc1` [Example 24, 5,6-dimethyl-N-[2-(4-methylphenyl)ethyl]furo[2,3-d]pyrimidin-4-amine] yielded a mortality at 200 ppm of 0%. With `CCCCOc1ccc(CCOc2ncnc3oc(C)c(C)c23)cc1` [Example 45, 5,6-dimethyl-4-[2-[4-(n-butoxy)phenyl]ethoxy]furo[2,3-d]pyrimidine] the mortality at 200 ppm was 90%.

Same assay, conditions: Aphis; rate 400 ppm, sprayed leaves; read-out: MA results (percent mortality)
In the case of `Cc1oc2ncnc(OCCc3ccc4ccccc4c3)c2c1C` [Example 55, 5,6-dimethyl-4-[2-(2-naphthyl)ethoxy]furo[2,3-d]pyrimidine], the mortality at 400 ppm is reported as 0%. `Cc1ccc(CCNc2ncnc3oc(C)c(C)c23)cc1` [Example 24, 5,6-dimethyl-N-[2-(4-methylphenyl)ethyl]furo[2,3-d]pyrimidin-4-amine] showed a mortality at 400 ppm of 0%. For `CCCCOc1ccc(CCOc2ncnc3oc(C)c(C)c23)cc1` [Example 45, 5,6-dimethyl-4-[2-[4-(n-butoxy)phenyl]ethoxy]furo[2,3-d]pyrimidine], the mortality at 400 ppm was 90%.

What follows are molecules tested on Pseudoperonospora cubensis (downy mildew) (assay: Plant pathology screen (Test 1), downy mildew on squash). Settings: foliar, read-out: DOWN MDEW control rating.
For `Cc1oc2ncnc(OCCc3ccc4ccccc4c3)c2c1C` [Example 55, 5,6-dimethyl-4-[2-(2-naphthyl)ethoxy]furo[2,3-d]pyrimidine], the pest or weed control at 400 µg/mL was 0 to 19%. `Cc1ccc(CCNc2ncnc3oc(C)c(C)c23)cc1` [Example 24, 5,6-dimethyl-N-[2-(4-methylphenyl)ethyl]furo[2,3-d]pyrimidin-4-amine] was tested, and the pest or weed control at 400 µg/mL was 0 to 19%. Work on `CCCCOc1ccc(CCOc2ncnc3oc(C)c(C)c23)cc1` [Example 45, 5,6-dimethyl-4-[2-[4-(n-butoxy)phenyl]ethoxy]furo[2,3-d]pyrimidine] yielded a pest or weed control at 400 µg/mL of 20 to 89%.

These molecules were tested on Twospotted spider mites (Tetranychus urticae Koch) (assay: Mite/insect screen, twospotted spider mites). Settings: Tetranychus urticae, rate 200 ppm, sprayed leaves; read-out: SM results (percent mortality).
Assay type: in vivo
Method: as §1, §2, §4, §3
SM refers to twospotted spider mites
For `Cc1oc2ncnc(OCCc3ccc4ccccc4c3)c2c1C` [Example 55, 5,6-dimethyl-4-[2-(2-naphthyl)ethoxy]furo[2,3-d]pyrimidine], the mortality at 200 ppm was 0%. `Cc1ccc(CCNc2ncnc3oc(C)c(C)c23)cc1` [Example 24, 5,6-dimethyl-N-[2-(4-methylphenyl)ethyl]furo[2,3-d]pyrimidin-4-amine] was tested, and the mortality at 200 ppm was 0%. In the case of `CCCCOc1ccc(CCOc2ncnc3oc(C)c(C)c23)cc1` [Example 45, 5,6-dimethyl-4-[2-[4-(n-butoxy)phenyl]ethoxy]furo[2,3-d]pyrimidine], the mortality at 200 ppm is reported as 90%.

Same assay, conditions: Tetranychus urticae, rate 400 ppm, sprayed leaves; read-out: SM results (percent mortality)
In the case of `Cc1oc2ncnc(OCCc3ccc4ccccc4c3)c2c1C` [Example 55, 5,6-dimethyl-4-[2-(2-naphthyl)ethoxy]furo[2,3-d]pyrimidine], the mortality at 400 ppm is reported as 0%. `Cc1ccc(CCNc2ncnc3oc(C)c(C)c23)cc1` [Example 24, 5,6-dimethyl-N-[2-(4-methylphenyl)ethyl]furo[2,3-d]pyrimidin-4-amine] gave a mortality at 400 ppm of 0%. Molecule `CCCCOc1ccc(CCOc2ncnc3oc(C)c(C)c23)cc1` [Example 45, 5,6-dimethyl-4-[2-[4-(n-butoxy)phenyl]ethoxy]furo[2,3-d]pyrimidine] has a mortality at 400 ppm of 100%.

These molecules were tested on southern armyworm (Spodopetra eridania Cramer) (assay: Mite/insect screen, Southern armyworm). Settings: Spodoptera eridania; rate 200 ppm, sprayed leaves; read-out: SAW results (percent mortality).
Assay type: in vivo
Method: as §1, §2, §4, §3
SAW refers to Southern armyworm
`Cc1oc2ncnc(OCCc3ccc4ccccc4c3)c2c1C` [Example 55, 5,6-dimethyl-4-[2-(2-naphthyl)ethoxy]furo[2,3-d]pyrimidine] showed a mortality at 200 ppm of 0%. `Cc1ccc(CCNc2ncnc3oc(C)c(C)c23)cc1` [Example 24, 5,6-dimethyl-N-[2-(4-methylphenyl)ethyl]furo[2,3-d]pyrimidin-4-amine] showed a mortality at 200 ppm of 0%. With `CCCCOc1ccc(CCOc2ncnc3oc(C)c(C)c23)cc1` [Example 45, 5,6-dimethyl-4-[2-[4-(n-butoxy)phenyl]ethoxy]furo[2,3-d]pyrimidine] the mortality at 200 ppm was 0%.

Same assay, conditions: Spodoptera eridania; rate 400 ppm, sprayed leaves; read-out: SAW results (percent mortality)
Molecule `Cc1oc2ncnc(OCCc3ccc4ccccc4c3)c2c1C` [Example 55, 5,6-dimethyl-4-[2-(2-naphthyl)ethoxy]furo[2,3-d]pyrimidine] has a mortality at 400 ppm of 0%. Molecule `Cc1ccc(CCNc2ncnc3oc(C)c(C)c23)cc1` [Example 24, 5,6-dimethyl-N-[2-(4-methylphenyl)ethyl]furo[2,3-d]pyrimidin-4-amine] has a mortality at 400 ppm of 0%. For `CCCCOc1ccc(CCOc2ncnc3oc(C)c(C)c23)cc1` [Example 45, 5,6-dimethyl-4-[2-[4-(n-butoxy)phenyl]ethoxy]furo[2,3-d]pyrimidine], the mortality at 400 ppm was 0%.
